Assay results as given in ChEMBL document CHEMBL1140600, “Recent advances in proton pump inhibitors and management of acid-peptic disorders” (Bioorg Med Chem, 2007).

Assay: Inhibition of H+/K+ ATPase
With `CCOC(=O)c1cnc(C[S+]([O-])c2nc3ccccc3[nH]2)nc1N(C)C` (stereo unspecified) the IC50 was 7.5 µM.
`COc1ccc2[nH]c([S+]([O-])Cc3ncc(C)c(OC)c3C)nc2c1` (stereo unspecified) [OMEPRAZOLE] showed an IC50 of 5.8 µM.

Assay: Dissociation constant, pKa of the compound
Format: physicochemical
In the case of `COCCCOc1ccnc(C[S+]([O-])c2nc3ccccc3[nH]2)c1C` (stereo unspecified) [RABEPRAZOLE], the pKa is reported as 5.
Work on `Cc1c(OCC(F)(F)F)ccnc1C[S+]([O-])c1nc2ccccc2[nH]1` (stereo unspecified) [LANSOPRAZOLE] yielded a pKa of 4.
For `COc1ccc2nc([S@@+]([O-])Cc3ncc(C)c(OC)c3C)[nH]c2c1` [ESOMEPRAZOLE], the pKa was 4.
Work on `COc1ccnc(C[S+]([O-])c2nc3ccc(OC(F)F)cc3[nH]2)c1OC` (stereo unspecified) [PANTOPRAZOLE] yielded a pKa of 4.
